From publication PMC10664828, “Tetrazole and acylsulfonamide bioisosteric replacements of the carboxylic acid in a dual MCL-1/BCL-xL inhibitor are tolerated” (RSC Advances, 2023)
Read-outs that look alike come from different tables or passages of the source.

Legend:
MCL-1 [1] = target: T1, MCL-1 (Homo sapiens, UniProt Q07820); test: Fluorescence polarization competition assay (FPCA) with FITC-Bak, MCL-1; format: binding; conditions: for MCL-1 inhibition in FPCA (in words): cell-free MCL-1 binding assay; for fold better MCL-1 affinity than parent compound 1: relative to compound 1
T1 construct: His6-MBP (cleaved yes); made in house; host or cells: E. coli
T1 sequence (Q07820 172-327): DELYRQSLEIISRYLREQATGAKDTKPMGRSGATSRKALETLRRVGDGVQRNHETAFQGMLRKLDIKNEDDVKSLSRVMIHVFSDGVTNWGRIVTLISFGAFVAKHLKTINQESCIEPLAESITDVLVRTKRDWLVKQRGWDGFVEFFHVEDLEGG
Description: The tagged protein was initially purified from the crude cell lysate by IMAC chromatography (GE Healthcare Life Sciences), and after dialysis to remove the imidazole the affinity tag was cleaved using PreScission Protease (GE Healthcare Life Sciences). A Sephacryl S-200 size exclusion column was used as a final purification step before the protein was concentrated with a 10 000 MWCO centrifugal filter concentrator (Millipore).
(§1) Fluorescence polarization experiments were conducted using a BMG PHERAstar FS multimode microplate reader equipped with two PMTs for simultaneous measurements of the perpendicular and parallel fluorescence emission. The assays were performed in black polypropylene 384-well microplate (Costar) with a final volume of […]. […] For the fluorescence polarization competition titrations, an equation derived by Nikolovska-Coleska et al.[16] was used to calculate the Ki from the IC50 data. All experiments were run in three biological replicates, each in triplicate.

HL60 cells = test: CellTiter-Blue cell viability assay; format: cell-based; conditions: Homo sapiens
Description: Cell viability studies were conducted using the CellTiter-Blue® (Promega, Madison, WI) assay. Briefly, HL60 cells, were seeded in a 96-well plate and maintained at 37 °C with 5% CO2 for 24 h. The cells were then exposed to test compounds at 11 concentrations ranging from 0 to 20 mM. After 72 h, cell viabilities were then determined according to the manufacturer's instructions.

BCL-xL [2] = target: T2, BCL-xL (Homo sapiens, UniProt Q07817); test: Fluorescence polarization competition assay (FPCA) with FITC-Bak, BCL-xL; format: binding; conditions: for Ki: read-out: K i (BCL-xL)
T2 construct: (or 15 nM Bcl-xL^2-212 (R&D Systems)); b80 says SinBiological
T2 sequence (Q07817 2-212): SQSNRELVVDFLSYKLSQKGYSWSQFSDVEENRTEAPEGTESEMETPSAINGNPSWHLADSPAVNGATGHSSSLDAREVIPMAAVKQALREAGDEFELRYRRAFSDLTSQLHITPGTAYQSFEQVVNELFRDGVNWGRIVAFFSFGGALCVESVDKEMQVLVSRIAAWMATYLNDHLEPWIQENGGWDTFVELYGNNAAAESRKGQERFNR
Description: BCl-xL was purchased from SinBiological.
as §1

MCL-1 [3] = target: T1, MCL-1; conditions: Table 2; FPCA; read-out: K i (MCL-1); cited from earlier work
BCL-xL [4] = target: T2, BCL-xL; conditions: Table 2; FPCA; read-out: K i (BCL-xL); cited from earlier work
[5] = cited from earlier work
[6] = HL-60, 72 h, 10% FBS, 72 h, read-out: HL60 IC50
[7] = HL-60, 72 h, […] FBS, 72 h, read-out: HL60 IC50
[8] = Table 1, FPCA, 100 nM Mcl-1 172-327, 10 nM FITC-Bak, read-out: K i
[9] = Table 2, FPCA, read-out: K i (MCL-1)

| Compound | Ki (MCL-1 [1]; read-out: K i) [µM] | IC50 (HL60 cells; [6]) [µM] | IC50 (HL60 cells; [7]) [µM] | Ki (MCL-1 [1]; [9]) [µM] | Ki (BCL-xL [2]) [µM] | further results |
| --- | --- | --- | --- | --- | --- | --- |
| CC(=O)OCOC(=O)c1ccc(N(CC(C)C)S(=O)(=O)c2ccc(Oc3ccccc3)cc2)cc1O [Compound 3, Acetoxymethyl 2-hydroxy-4-(N-isobutyl-4-phenoxyphenylsulfonamido)benzoate] | > 500 | > 120 | 46.4 | – | – | MCL-1 inhibition in FPCA (in words) (MCL-1 [1]): inactive |
| CS(=O)(=O)NC(=O)c1ccc(N(Cc2ccccc2)S(=O)(=O)c2ccc(Oc3ccccc3)cc2)cc1O [Compound 7a, 4-(N-Benzyl-4-phenoxyphenylsulfonamido)-2-hydroxy-N-(methylsulfonyl)benzamide] | – | – | – | 2.94 ± 0.35 | 7.22 ± 1.07 | Ki (MCL-1 [1]; [8]): 2.94 ± 0.35 µM; fold better MCL-1 affinity than parent compound 1 (MCL-1 [1]): ≥ 2 fold; fold weaker BCL-xL inhibition than parent compound 17cd (BCL-xL [2]; relative to 17cd): about 4 fold |
| Cc1cc(Oc2ccc(S(=O)(=O)N(Cc3ccccc3)c3ccc(O)c(C(=O)NS(=O)(=O)c4ccc(NCC5CCOCC5)c([N+](=O)[O-])c4)c3)cc2)cc(C)c1Cl [Compound 29, 5-(N-Benzyl-4-(4-chloro-3,5-dimethylphenoxy)phenylsulfonamido)-2-hydroxy-N-((3-nitro-4-(((tetrahydro-2H-pyran-4-yl)methyl)amino)phenyl)sulfonyl)benzamide] | – | – | – | 1.01 ± 0.08 | 1.54 ± 0.23 | – |
| Cc1cc(Oc2ccc(S(=O)(=O)N(CC(C)C)c3ccc(O)c(C(=O)O)c3)cc2)cc(C)c1Cl [Compound 6e-OH-5, reference compound] | – | > 120 | 9.82 | – | – | Ki (MCL-1 [3]): 0.778 ± 0.041 µM; Ki (BCL-xL [4]): 2.19 ± 0.19 µM |
| CC(C)CN(c1ccc(-c2cc(=O)[nH]o2)cc1)S(=O)(=O)c1ccc(Oc2ccccc2)cc1 [Compound 6, N-Isobutyl-N-(4-(3-oxo-2,3-dihydroisoxazol-5-yl)phenyl)-4-phenoxybenzenesulfonamide] | > 500 | – | – | – | – | MCL-1 inhibition in FPCA (in words) (MCL-1 [1]): no inhibition; pKa ([5]; value of the functional group): 4–5 |
| O=C(NS(=O)(=O)c1ccc(NCC2CCOCC2)c([N+](=O)[O-])c1)c1ccc(N(Cc2ccccc2)S(=O)(=O)c2ccc(Oc3ccccc3)cc2)cc1O [Compound 7c, 4-(N-Benzyl-4-phenoxyphenylsulfonamido)-2-hydroxy-N-((3-nitro-4-(((tetrahydro-2H-pyran-4-yl)methyl)amino)phenyl)sulfonyl)benzamide] | – | – | – | 1.23 ± 0.15 | 1.05 ± 0.14 | – |
| O=C(NS(=O)(=O)c1ccccc1)c1ccc(N(Cc2ccccc2)S(=O)(=O)c2ccc(Oc3ccccc3)cc2)cc1O [Compound 7b, 4-(N-Benzyl-4-phenoxyphenylsulfonamido)-2-hydroxy-N-(phenylsulfonyl)benzamide] | 1.95 ± 0.22 | – | – | – | 2.34 ± 0.22 | fold better MCL-1 affinity than parent compound 1 (MCL-1 [1]): ≥ 2 fold; fold improvement in BCL-xL inhibitory activity (BCL-xL [2]; relative to 7a): 3 fold |
| CC(C)CN(c1ccc(C#N)c(O)c1)S(=O)(=O)c1ccc(Oc2ccccc2)cc1 [Compound 8, N-(4-Cyano-3-hydroxyphenyl)-N-isobutyl-4-phenoxybenzenesulfonamide] | > 500 | – | – | – | – | MCL-1 inhibition in FPCA (in words) (MCL-1 [1]): no inhibition; pKa ([5]; cyanophenol, no reference given): about 7 |
| COC(=O)c1ccc(N(CC(C)C)S(=O)(=O)c2ccc(Oc3ccccc3)cc2)cc1O [Compound 2, Methyl 2-hydroxy-4-(N-isobutyl-4-phenoxyphenylsulfonamido)benzoate] | > 500 | 76.4 | 68.1 | – | – | MCL-1 inhibition in FPCA (in words) (MCL-1 [1]): inactive |
| Cc1cc(Oc2ccc(S(=O)(=O)N(Cc3ccccc3)c3ccc(C(=O)NS(=O)(=O)c4ccc(NCC5CCOCC5)c([N+](=O)[O-])c4)c(O)c3)cc2)cc(C)c1Cl [Compound 7d, 4-(N-Benzyl-4-(4-chloro-3,5-dimethylphenoxy)phenylsulfonamido)-2-hydroxy-N-((3-nitro-4-(((tetrahydro-2H-pyran-4-yl)methyl)amino)phenyl)sulfonyl)benzamide] | – | > 120 | 7.45 | 0.8 ± 0.07 | 1.82 ± 0.18 | – |
| CC(C)CN(c1ccc(-c2nn[nH]n2)cc1)S(=O)(=O)c1ccc(Oc2ccccc2)cc1 [Compound 5, N-(4-(2H-Tetrazol-5-yl)phenyl)-N-isobutyl-4-phenoxybenzenesulfonamide] | – | > 120 | 15.7 | – | – | Ki (MCL-1 [1]; [8]): 3.29 ± 0.26 µM; fold better MCL-1 affinity than parent compound 1 (MCL-1 [1]): ≥ 2 fold; pKa ([5]; value of the functional group): 4–5 |
| Cc1cc(Oc2ccc(S(=O)(=O)N(Cc3ccccc3)c3ccc(C(=O)O)c(O)c3)cc2)cc(C)c1Cl [Compound 17cd, reference compound] | – | 53.2 | 5.79 | – | – | IC50 (HL60 cells; HL-60, text of introduction, read-out: IC50, viability of human leukemia HL60 cells): 18.5 µM |
| CC(C)CN(c1ccc(C(=O)NO)c(O)c1)S(=O)(=O)c1ccc(Oc2ccccc2)cc1 [Compound 4, N,2-Dihydroxy-4-(N-isobutyl-4-phenoxyphenylsulfonamido)benzamide] | – | – | – | – | – | Ki (MCL-1 [1]; [8]): 70.6 ± 5.8 µM; pKa ([5]; value of the functional group): 8–9 |
| CC(C)CN(c1ccc(C(=O)O)c(O)c1)S(=O)(=O)c1ccc(Oc2ccccc2)cc1 [Compound 1] | – | > 120 | 18.5 | – | – | – |
| Cc1cc(Oc2ccc(S(=O)(=O)N(Cc3ccccc3)c3ccc(O)c(C(=O)O)c3)cc2)cc(C)c1Cl [Compound 27, 5-(N-Benzyl-4-(4-chloro-3,5-dimethylphenoxy)phenylsulfonamido)-2-hydroxybenzoic acid] | – | – | – | 1.4 ± 0.47 | – | Ki (BCL-xL [2]; Table 2, FPCA, 15 nM Bcl-xL 2-212, 10 nM FITC-Bak): 1.82 ± 0.23 µM |
